Tests used:
CSNK1A1 = CSNK1A1 (Homo sapiens (Human), UniProt P48729); experiment: CSNK1A1 Assay 2 (ADP-Glo, 1 μM ATP, substrate biotin-Ahx-KRRRAL-pS-VASLPGL); type: biochemical; conditions: median, read-out: CSNK1A1 Assay 2 IC50 [mol/l] (median)
Experimental: CSNK1A1-inhibitory activity of compounds of the present invention in presence of 1 μM adenosine-tri-phosphate (ATP) was quantified employing the CSNK1A1 assay as described in the following paragraphs. In essence, the enzyme activity is measured by quantification of the adenosine-di-phosphate (ADP), which is generated as a co-product of the enzyme reaction, via the “ADP-Glo™ Kinase Assay” kit from the company Promega. This detection system works as follows: In a first step the ATP not consumed in the kinase reaction is quantitatively converted to cAMP employing an adenylate cyclase (“ADP-Glo-reagent”), then the adenylate cyclase is stopped and the ADP generated in the kinase reaction converted to ATP which generates in a luciferase-based reaction a glow-luminescence signal (“Kinase Detection Reagent”).
(§1) Recombinant fusion protein of N-terminal Glutathion-S-Transferase (GST) and full-length human CSNK1A1, expressed by baculovirus infected insect cells and purified via Glutathion affinity chromatography, was purchased from Life Technologies (product no. PV4174) and used as enzyme. As substrate for the kinase reaction the biotinylated peptide biotin-Ahx-KRRRAL-pS-VASLPGL (C-terminus in amide form) was used which can be purchased e.g. from the company Biosyntan (Berlin-Buch, Germany).
For the assay 50 nl of a 100 fold concentrated solution of the test compound in DMSO was pipetted into a white 1536-well microtiter plate (Greiner Bio-One, Frickenhausen, Germany), 2 μL of a solution of CSNK1A1 in aqueous assay buffer [50 mM HEPES pH 7.5, 10% (v/v) glycerol, 10 mM MgCl2, 50 mM NaCl, 1 mM dithiothreitol, 0.01% (w/v) bovine serum albumin, 0.01% (v/v) Triton X-100] were added and the mixture was incubated for 15 min at 22° C. to allow pre-binding of the test compounds to the enzyme before the start of the kinase reaction. […] The concentration of CSNK1A1 was adjusted depending of the activity of the enzyme lot and was chosen appropriate to have the assay in the linear range, a typical concentrations are about 0.0375 ng/μL. The reaction was stopped by the addition of 2.5 μL of “ADP-Glo-reagent” (1:1.5 fold diluted with water) and the resulting mixture was incubated at 22° C. for 1 h to convert the ATP not consumed in the kinase reaction completely […]. Subsequently 2.5 μL of the “kinase detection reagent” (1.2 fold more concentrated than recommended by the producer) were added, the resulting mixture was incubated at 22° C. for 1 h and then the luminescence measured with a suitable measurement instrument (e.g. Viewlux™ from Perkin-Elmer). The amount of emitted light was taken as a measure for the amount of ADP generated and thereby for the activity of the CSNK1A1.

CSNK1D = CSNK1D (Homo sapiens (Human), UniProt P48730); experiment: CSNK1D Assay (ADP-Glo, 1 μM ATP); type: biochemical; conditions: median, read-out: CSNK1D IC50 [mol/l] (median)
Sequence of CSNK1D (P48730 whole entry): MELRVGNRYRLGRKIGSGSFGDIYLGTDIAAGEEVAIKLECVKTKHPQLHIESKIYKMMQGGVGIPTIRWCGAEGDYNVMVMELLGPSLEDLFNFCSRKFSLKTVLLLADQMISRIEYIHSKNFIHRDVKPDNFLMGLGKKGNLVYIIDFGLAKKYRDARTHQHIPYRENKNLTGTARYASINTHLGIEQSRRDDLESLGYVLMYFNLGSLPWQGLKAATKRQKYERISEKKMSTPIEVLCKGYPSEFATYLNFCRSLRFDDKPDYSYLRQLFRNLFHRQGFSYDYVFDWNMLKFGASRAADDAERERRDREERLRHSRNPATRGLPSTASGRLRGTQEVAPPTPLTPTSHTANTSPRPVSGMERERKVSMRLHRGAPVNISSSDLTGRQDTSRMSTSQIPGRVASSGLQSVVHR
Experimental: CSNK1D-inhibitory activity of compounds of the present invention in presence of 1 μM adenosine-tri-phosphate (ATP) was quantified employing the CSNK1 D assay as described in the following paragraphs. In essence, the enzyme activity is measured by quantification of the adenosine-di-phosphate (ADP), which is generated as a co-product of the enzyme reaction, via the “ADP-Glo™ Kinase Assay” kit from the company Promega. This detection system works as follows: In a first step the ATP not consumed in the kinase reaction is quantitatively converted to cAMP employing an adenylate cyclase (“ADP-Glo-reagent”), then the adenylate cyclase is stopped and the ADP generated in the kinase reaction converted to ATP which generates in a luciferase-based reaction a glow-luminescence signal (“Kinase Detection Reagent”).
as §1, with “CSNK1D,” for “CSNK1A1,”, “PV3665)” for “PV4174)”, “Btn-Ahx-[…]” for “biotin-Ahx-KRRRAL-pS-VASLPGL”
For the assay 50 nl of a 100 fold concentrated solution of the test compound in DMSO was pipetted into a white 1536-well microtiter plate (Greiner Bio-One, Frickenhausen, Germany), 2 μL of a solution of CSNK1D in aqueous assay buffer [50 mM HEPES pH 7.5, 10% (v/v) glycerol, 10 mM MgCl2, 50 mM NaCl, 1 mM dithiothreitol, 0.01% (w/v) bovine serum albumin, 0.01% (v/v) Triton X-100] were added and the mixture was incubated for 15 min at 22° C. to allow pre-binding of the test compounds to the enzyme before the start of the kinase reaction. […] The concentration of CSNK1D was adjusted depending of the activity of the enzyme lot and was chosen appropriate to have the assay in the linear range, a typical concentration is about 0.5 ng/μL. The reaction was stopped by the addition of 2.5 μL of “ADP-Glo-reagent” (1:1.5 fold diluted with water) and the resulting mixture was incubated at 22° C. for 1 h to convert the ATP not consumed in the kinase reaction completely […]. Subsequently 2.5 μL of the “kinase detection reagent” (1.2 fold more concentrated than recommended by the producer) were added, the resulting mixture was incubated at 22° C. for 1 h and then the luminescence measured with a suitable measurement instrument (e.g. Viewlux™ from Perkin-Elmer). The amount of emitted light was taken as a measure for the amount of ADP generated and thereby for the activity of the CSNK1D.

Sequence of CSNK1A1 (P48729 whole entry): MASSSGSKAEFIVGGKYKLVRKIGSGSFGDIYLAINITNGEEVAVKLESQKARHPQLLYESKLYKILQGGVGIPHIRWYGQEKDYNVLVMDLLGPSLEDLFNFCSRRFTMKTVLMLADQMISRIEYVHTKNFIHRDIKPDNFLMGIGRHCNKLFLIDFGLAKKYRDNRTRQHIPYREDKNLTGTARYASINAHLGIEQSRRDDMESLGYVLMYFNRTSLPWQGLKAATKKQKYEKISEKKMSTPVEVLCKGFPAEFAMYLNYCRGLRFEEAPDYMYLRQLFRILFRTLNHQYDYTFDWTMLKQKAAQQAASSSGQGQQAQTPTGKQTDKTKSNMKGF

Row | SMILES | IC50 (CSNK1A1) [nM] | IC50 (CSNK1D) [nM]
1 | COc1ccc2[nH]c(-c3ccnc(NC(=O)Cc4ccc(F)cc4)c3)c(-c3ccccn3)c2n1 [Example 32, 2-(4-fluorophenyl)-N-{4-[5-methoxy-3-(pyridin-2-yl)-1H-pyrrolo[3,2-b]pyridin-2-yl]pyridin-2-yl}acetamide] | 2.5 | 7.52
2 | O=C(Cc1ccc(Cl)cc1)Nc1cc(-c2[nH]c3cccnc3c2-c2ccccn2)ccn1 [Example 42, 2-(4-chlorophenyl)-N-{4-[3-(pyridin-2-yl)-1H-pyrrolo[3,2-b]pyridin-2-yl]pyridin-2-yl}acetamide] | 1.23 | 3.33
3 | COCC(C(=O)Nc1cc(-c2[nH]c3cccnc3c2-c2ccccn2)ccn1)c1ccc(F)cc1 (racemic) [Example 43, (2RS)-2-(4-fluorophenyl)-3-methoxy-N-(4-(3-(pyridin-2-yl)-1H-pyrrolo[3,2-b]pyridin-2-yl)pyridin-2-yl)propanamide] | 3.51 | 6.46
4 | CC(C(=O)Nc1cc(-c2[nH]c3cccnc3c2-c2ccccn2)ccn1)c1ccc(F)cc1 (racemic) [Example 6, 2-(4-fluorophenyl)-N-{4-[3-(pyridin-2-yl)-1H-pyrrolo[3,2-b]pyridin-2-yl]pyridin-2-yl}propanamide] | 1.73 | 3.37
5 | Cc1cc(CC(=O)Nc2cc(-c3[nH]c4cccnc4c3-c3ccccn3)ccn2)ccc1F [Example 41, 2-(4-fluoro-3-methylphenyl)-N-{4-[3-(pyridin-2-yl)-1H-pyrrolo[3,2-b]pyridin-2-yl]pyridin-2-yl}acetamide] | 4.03 | 12.1
6 | COCCc1ccnc2c(-c3ccccn3)c(-c3ccnc(NC(=O)Cc4ccc(F)cc4)c3)[nH]c12 [Example 36, 2-(4-fluorophenyl)-N-{4-[7-(2-methoxyethyl)-3-(pyridin-2-yl)-1H-pyrrolo[3,2-b]pyridin-2-yl]pyridin-2-yl}acetamide] | 14.8 | 14.8
7 | O=C(Cc1ccc(F)cc1)Nc1cc(-c2[nH]c3c(C4CC4)ccnc3c2-c2ccccn2)ccn1 [Example 35, N-{4-[7-cyclopropyl-3-(pyridin-2-yl)-1H-pyrrolo[3,2-b]pyridin-2-yl]pyridin-2-yl}-2-(4-fluorophenyl)acetamide] | 2.79 | 4.19
8 | CC(C)C(C(=O)Nc1cc(-c2[nH]c3ccc(F)nc3c2-c2ccccn2)ccn1)c1ccc(F)cc1 (single isomer, unassigned; (+)) [Example 26, (+)-2-(4-fluorophenyl)-N-{4-[5-fluoro-3-(pyridin-2-yl)-1H-pyrrolo[3,2-b]pyridin-2-yl]pyridin-2-yl}-3-methylbutanamide] | 3.5 | 7.62
9 | COc1ccnc2c(-c3ccccn3)c(-c3ccnc(NC(=O)Cc4ccc(F)cc4)c3)[nH]c12 [Example 31, 2-(4-fluorophenyl)-N-{4-[7-methoxy-3-(pyridin-2-yl)-1H-pyrrolo[3,2-b]pyridin-2-yl]pyridin-2-yl}acetamide] | 2.5 | 4.4
10 | O=C(Cc1ccc(F)cc1)Nc1cc(-c2[nH]c3ccc(Cl)nc3c2-c2ccccn2)ccn1 [Example 23, N-{4-[5-chloro-3-(pyridin-2-yl)-1H-pyrrolo[3,2-b]pyridin-2-yl]pyridin-2-yl}-2-(4-fluorophenyl)acetamide] | 0.941 | 3.18
11 | CC(C(=O)Nc1cc(-c2[nH]c3ccc(F)nc3c2-c2ccccn2)ccn1)c1ccc(F)cc1 (racemic) [Example 1, 2-(4-fluorophenyl)-N-{4-[5-fluoro-3-(pyridin-2-yl)-1H-pyrrolo[3,2-b]pyridin-2-yl]pyridin-2-yl}propanamide] | 1.66 | 4.58
12 | CC(C(=O)Nc1cc(-c2[nH]c3cccnc3c2-c2ccccn2)ccn1)c1ccc(F)cc1 (single isomer, unassigned; (-)) [Example 8, (−)-2-(4-fluorophenyl)-N-{4-[3-(pyridin-2-yl)-1H-pyrrolo[3,2-b]pyridin-2-yl]pyridin-2-yl}propanamide] | 7.53 | 14.6
13 | O=C(Cc1ccc(F)cc1)Nc1cc(-c2[nH]c3cccnc3c2-c2ncccn2)ccn1 [Example 51, 2-(4-fluorophenyl)-N-{4-[3-(pyrimidin-2-yl)-1H-pyrrolo[3,2-b]pyridin-2-yl]pyridin-2-yl}acetamide] | 7.93 | 20
14 | O=C(Cc1ccc(F)cc1)Nc1cc(-c2[nH]c3cc(F)cnc3c2-c2ccccn2)ccn1 [Example 9, 2-(4-fluorophenyl)-N-{4-[6-fluoro-3-(pyridin-2-yl)-1H-pyrrolo[3,2-b]pyridin-2-yl]pyridin-2-yl}acetamide] | 1.68 | 4.76
15 | O=C(Cc1ccc(F)cc1)Nc1cc(-c2[nH]c3ccc(F)nc3c2-c2ccccn2)ccn1 [Example 4, 2-(4-fluorophenyl)-N-{4-[5-fluoro-3-(pyridin-2-yl)-1H-pyrrolo[3,2-b]pyridin-2-yl]pyridin-2-yl}acetamide] | 0.739 | 2.33
16 | CC(C(=O)Nc1cc(-c2[nH]c3cccnc3c2-c2ccccn2)ccn1)c1ccc(F)cc1 (single isomer, unassigned; (+)) [Example 7, (+)-2-(4-fluorophenyl)-N-{4-[3-(pyridin-2-yl)-1H-pyrrolo[3,2-b]pyridin-2-yl]pyridin-2-yl}propanamide] | 0.949 | 2.1
17 | O=C(Cc1ccc(F)cc1)Nc1cc(-c2[nH]c3cccnc3c2-c2ncccn2)ccn1 [Example 16, 2-(4-fluorophenyl)-N-{4-[3-(pyrimidin-2-yl)-1H-pyrrolo[3,2-b]pyridin-2-yl]pyridin-2-yl}acetamide] | 4.77 | 9.02
18 | O=C(Cc1ccc(F)cc1)Nc1cc(-c2[nH]c3c(Cl)ccnc3c2-c2ccccn2)ccn1 [Example 22, N-{4-[7-chloro-3-(pyridin-2-yl)-1H-pyrrolo[3,2-b]pyridin-2-yl]pyridin-2-yl}-2-(4-fluorophenyl)acetamide] | 1.6 | 5.84
19 | O=C(Cc1ccc(F)cc1)Nc1cc(-c2[nH]c3ccnnc3c2-c2ccccn2)ccn1 [Example 21, 2-(4-fluorophenyl)-N-{4-[7-(pyridin-2-yl)-5H-pyrrolo[3,2-c]pyridazin-6-yl]pyridin-2-yl}acetamide] | 1.66 | 3.96
20 | O=C(Cc1ccc(F)cc1)Nc1cc(-c2[nH]c3cc(F)cnc3c2-c2ccccc2)ccn1 [Example 10, 2-(4-fluorophenyl)-N-[4-(6-fluoro-3-phenyl-1H-pyrrolo[3,2-b]pyridin-2-yl)pyridin-2-yl]acetamide] | 3.83 | 4.27
